# “Also recorded” adds a separate entry of the source. Where two headings read alike, the source gives them in different places.
# Legend:
# glycine binding site = glycine binding site (Rattus norvegicus, UniProt P35439); assay: affinity for the glycine binding site / glycine/NMDA receptor (Ki; method not stated)
# Text: (§1) The binding affinities of quinoxaline-2,3-diones at NMDA receptor glycine sites also were estimated by electrophysiological assays with either cloned rat NMDA receptors expressed in Xenopus oocytes, or non-NMDA receptors expressed in oocytes by whole rat brain poly(A)^+ RNA. […] For NMDA receptors Ki values were approximated by averaging values at three subtype combinations (NR1A/NR2A, NR1A/NR2B, and NR1A/NR2C).
# DBA-2 mice = assay: audiogenic seizure model in DBA-2 mice; format: in vivo; conditions: Mus musculus, ip, 0.5 h; i.p. injection
# Text: The anticonvulsant activity of the glycine and excitatory amino acid antagonists can be assessed in the audiogenic seizure model in DBA-2 mice as follows. DBA-2 mice can be obtained from Jackson Laboratories, Bar Harbor, Maine. These mice at an age of <27 days develop a tonic seizure within 5-10 seconds and die when they are exposed to a sound of 14 kHz (sinus wave) at 110 dB (Lonsdale, D., Dev. Pharmacol. Ther. 4:28 (1982)). […] 21 day old DBA-2 mice are used for all experiments. Compounds are given intraperitoneally in either saline, DMSO, or polyethyleneglycol-400. Appropriate solvent controls are included in each experiment. Dose response curves are constructed by giving increasing doses of drug from 1 mg/kg to 100 mg/kg. Each dose group (or solvent control) consists of at least six animals.
# [1] = test system: non-NMDA glutamate receptors; conditions: literature, cited from earlier work
# animals = conditions: literature; cited from earlier work
# [2] = literature, cited from earlier work
# [3] = test system: glycine binding site of the NMDA receptor; conditions: literature, cited from earlier work
# neurons = conditions: literature, cited from earlier work
# [4] = test system: dorsal horn nociceptive neurons; conditions: literature; cited from earlier work
# mice [5] = assay: formalin test for pain in Swiss Webster mice; format: in vivo, male Swiss Webster mice; conditions: i.p., early and late phases
# Description: The effects of the glycine receptor antagonists of the present invention on chronic pain can be evaluated as follows. Male Swiss/Webster mice weighing 25-35 grams are housed five to a cage with free access to food and water and are maintained on a 12 hour light cycle (light onset at 0800h). The glycine receptor antagonist is dissolved in DMSO at a concentration of 140 and 5-40 mg/mL, respectively. DMSO is used as vehicle control. All drugs=are injected intraperitoneally (1 μl/g). […] Mice are observed in a plexiglass cylinder, 25 cm in diameter and 30 cm in height. The plantar surface of one hindpaw is injected subcutaneously with 20 μl of 5% formalin. The degree of pain is determined by measuring the amount of time the animal spends licking the formalin-injected paw during the following time intervals: 0-5' (early phase); 5'-10', 10'-15' and 15'-50' (late phase). To test whether the glycine/excitatory amino acid antagonists prevent chronic pain in the test animals, vehicle (DMSO) or drugs dissolved in vehicle at doses of 1 mg/kg to 40 mg/kg are injected intraperitoneally 30 minutes prior to the formalin injection. For each dose of drug or vehicle control at least six animals are used.
# Briefly, after a 60 minute accommodation period in plexiglass jars, mice were weighed and injected intraperitoneally (i.p.) with NDMQX (1-20 mg/kg; N=6-10 mice/dose). Controls were injected with DMSO (1 mL/kg, i.p.). Thirty min later, mice were injected with formalin (20 μl of 5% solution) just under the skin of the right hind paw, transferred to the plexiglass jars, and immediately observed for licking or biting of the injected paw for 1 hr. The amount of time that each mouse spent licking the injected paw was measured at 0-5 min (early phase) and 15-50 min (late phase).
# In the formalin test, following a 1 hr accommodation period, mice were injected i.p. with NMCQX (1.00-10.00 mg/kg, N=7-13 mice/dose) or NDMQX (0.5-20.00 mg/kg, N=8-9 mice/dose). Control mice were injected with Tris (0.5 M) or Bis-Tris (0.2 M), respectively. Mice were then injected with formalin. […] The amount of time that each mouse spent licking and/or biting the injected paw was recorded for 1 hr.
# [6] = molecular target: NMDA receptor glycine sites; assay: electrophysiological assay, cloned rat NMDA receptors expressed in Xenopus oocytes; format: cell-based; conditions: Table II; from electrophysiology using Xenopus oocytes
# Text: as §1
# rats = assay: rat model of permanent focal cerebral ischemia, continuous intravenous infusion; format: in vivo, male Sprague-Dawley rats
# Description: Male Sprague-Dawley rats (290-320 g) were […] and maintained under anesthesia with ±2% of halothane. […] The common carotid arteries (CCA) were isolated, and a loose silk ligature Was placed around each CCA. A vertical skin incision was made between the left orbit and the auditory canal, posterior part of zygoma removed and small opening (2.0/2.5 mm) drilled dorsorostrally to the foramen ovale under constant saline irrigation. The dura was opened with a microsurgical hook and the brain gently retracted with a fine spatula to expose the bifurcation of the internal carotid artery and the middle cerebral artery. The ipsilateral CCA was ligated and the MCA coagulated from its origin to the olfactory tract Two hours after MCA occlusion, the clip from the contralateral CCA was removed.
# NDMQX was dissolved in 0.1 M L-arginine and 5% glucose and infused as a slow 10 mg/kg i.v. bolus (immediately after MCA occlusion) followed by 7 mg/kg/h infusion for 22 hours.
# Brains were sliced into 2 mm blocks and stained with tetrazolium red (2,3,5-triphenyl tetrazolium chloride). The areas of brain damage were assessed using an image analyzer (Image-1, Universal Imaging Corporation, PA) to determine the volume of cortical and subcortical infarction by integration of areas and the distance between each level.
# For the drug administration, the NMCQX was dissolved in 0.05 Tris and 5% glucose. It was infused as a slow 2 mg/kg i.v. bolus (immediately after MCA occlusion) followed by 1.4 mg/kg/h infusion for 22 hours.
# mice [7] = assay: MES test with i.p. NMCQX or NDMQX (Example 51); format: in vivo, Swiss Webster mice; conditions: NMCQX 1.25-7.50 mg/kg, NDMQX 5.00-15.00 mg/kg
# Description: In the MES test, mice were injected i.p. with NMCQX (1.25-7.50 mg/kg) or NDMQX (5.00-15.00 mg/kg). Control mice were injected with Tris (0.05 M) or Arginine (0.1 M), respectively. Seizures were then induced by applying a rectangular pulse, 50 mA, 60 pulses/sec, 0.8 msec pulse width, and 0.2 sec train length, at the time of the drugs' peak effect.
# mice [8] = assay: anticonvulsant activity in maximum electroshock seizure (MES) experiments in mice; format: in vivo, male Swiss/Webster mice
# Description: The seizure stimulus parameters were: 50 mA, 60 Hz, rectangular pulse, width 0.8 msec, duration 200 msec. Tonic hind limb extension observed after application of the electrical stimulus was recorded as occurrence of seizure. The drug was applied i.v. as an aqueous Tris (Tromethamine) solution.
# PCP receptor = conditions: Wong et al. 1986; cited from earlier work
# mice [9] = assay: anticonvulsant activity in maximum electroshock seizure (MES) experiments in mice; format: in vivo, male Swiss/Webster mice; conditions: Mus musculus, ip; Table III; i.p. injection
# [10] = listed as 6-cyano-7-nitroquinoxaline-2,3-dione
# [11] = listed as 6,7-dinitroquinoxaline-2,3-dione
structure (smiles),measurement,setting,value
O=c1[nH]c2cc(F)c(F)c(Br)c2[nH]c1=O [Br F F H],Ki,"glycine binding site; Table III, read-out: Ki",2300 nM
same,ED50,DBA-2 mice,30 mg/kg
"N#Cc1cc2nc(O)c(O)nc2cc1[N+](=O)[O-] [6-cyano-7-nitro-1,4-dihydroquinoxaline-2,3-dione]",antagonism at kainate / AMPA / non-NMDA receptors,[1],more potent antagonists of kainate than glycine
same,antagonism at kainate / AMPA / non-NMDA receptors,[1]; [10],AMPA
same,antagonism at kainate / AMPA / non-NMDA receptors,"[1]; listed as 7-cyano-6-nitro-1,4-dihydroquinoxaline-2,3-dione",potent non-NMDA glutamate receptor antagonists
same,in vivo activity,animals,antagonize responses mediated by NMDA-associated glycine recognition sites in vivo
same,penetration of the blood/brain barrier (words),[2],incapable of crossing the blood/brain barrier after i.p. administration
same,penetration of the blood/brain barrier (words),[2]; listed as CNQX,poor access to the central nervous system
same,penetration of the blood/brain barrier (words),"[2]; listed as cyano-7-nitro-1,4-dihydroquinoxaline-2,3-dione",poor access to the central nervous system
same,glycine site antagonism or affinity (words),[3],can antagonize the responses to L-glutamate by interacting with the glycine recognition sites; also recorded: inhibit [^3 H] glycine binding to the strychnine-insensitive glycine binding sites; also recorded: antagonizes NMDA receptor-mediated responses by a competitive interaction of the glycine binding site
same,glycine site antagonism or affinity (words),[3]; [10],glycine antagonists
same,neuroprotective efficacy,neurons,neuroprotective in vitro
O=C(O)c1cc(O)c2ccc(Cl)cc2n1 [7-Cl-kynurenic acid],"blockade of ""wind up""",[4],"blocked the ""wind up"" phenomenon"
same,penetration of the blood/brain barrier (words),[2],cannot penetrate the blood/brain barrier
same,glycine site antagonism or affinity (words),[3],relatively high receptor binding affinity in vitro
"Cc1c(Cl)cc2[nH]c(=O)c(=O)[nH]c2c1[N+](=O)[O-] [NMCQX, 7-Chloro-6-methyl-5-nitro-1,4-dihydroquinoxaline-2,3-dione]",antinociceptive effect in the formalin test,mice [5],dose-dependent antinociceptive effect in both phases
same,Ki,[6],5 nM
same,Ki,glycine binding site,5 nM
same,reduction in cortical infarct volume,"rats; 2 mg/kg i.v. bolus then 1.4 mg/kg/h for 22 hours, p<0.05",75%
same,neuroprotection,rats; rat focal ischemia,significant neuroprotection
same,protection from electroshock seizures,mice [7],dose-dependently protected mice from generalized clonic-tonic seizures
same,"times better than 6,7-dichloro-5-nitro-1,4-dihydroquinoxaline-2,3-dione as anticonvulsant",mice [8]; MES ED50 ratio,4-5 times
same,ED50 as an anticonvulsant in the MES experiment in mice,mice [8]; route not stated,1 mg/kg
"O=c1[nH]c2cc([N+](=O)[O-])c([N+](=O)[O-])cc2[nH]c1=O [6,7-dinitro-1,4-dihydroquinoxaline-2,3-dione]",antagonism at kainate / AMPA / non-NMDA receptors,[1],more potent antagonists of kainate than glycine; also recorded: potent non-NMDA glutamate receptor antagonists
same,antagonism at kainate / AMPA / non-NMDA receptors,[1]; [11],AMPA
same,in vivo activity,animals,antagonize responses mediated by NMDA-associated glycine recognition sites in vivo
same,penetration of the blood/brain barrier (words),[2]; listed as DNQX,poor access to the central nervous system
same,glycine site antagonism or affinity (words),[3],can antagonize the responses to L-glutamate by interacting with the glycine recognition sites; also recorded: inhibit [^3 H] glycine binding to the strychnine-insensitive glycine binding sites
same,glycine site antagonism or affinity (words),[3]; [11],glycine antagonists
same,neuroprotective efficacy,neurons,neuroprotective activity
same,neuroprotective efficacy,neurons; [11],neuroprotective in vitro
C[C@]12N[C@H](Cc3ccccc31)c1ccccc12 [MK801],Kd,PCP receptor,~3 nM
same,neuroprotective efficacy,neurons,have neuroprotective efficacy both in vitro and in vivo
"O=c1[nH]c2c(F)c(F)c(F)c(F)c2[nH]c1=O [F F F F, 5,6,7,8-tetrafluoro-1,4-dihydroquinoxaline-2,3-dione]",ED50,mice [9],20 mg/kg
same,Ki,"glycine binding site; Table III, read-out: Ki",2190 nM
same,ED50,DBA-2 mice,9 mg/kg

# Source: patent US6251903A, “Alkyl, azido, alkoxy, and fluoro-substituted and fused quinoxalinediones and the use thereof as glycine receptor antagonist” (priority 2000, dated 2001)
